Earlier results as cited in patent US5209933A, “Long acting calcium channel blocker composition” (Syntex (U.S.A.) Inc., priority 1991, dated 1993).
Like-named read-outs stand apart in the source and are kept apart here.

What was measured:
calcium channel = conditions: result in words
[1] = result in words
[2] = result in words; remark: listed apart in the source

Compound | calcium channel blocking activity (calcium channel) | also measured
4-(3'-nitrophenyl)-2,6-dimethyl-1,4-dihydropyridine-3,5-dicarboxylic acid 3-methyl ester 5-(2-methoxyethyl)ester [nimodipine] | high degree of calcium channel blocking activity | 
CCOC(=O)C1=C(C)NC(C)=C(C(=O)OCC)C1c1ccccc1C(F)F [2,6-dimethyl-3,5-diethoxycarbonyl-4-(o-difluoromethylphenyl)-1,4-dichydropyridine] | high degree of calcium channel blocking activity | 
CCOC(=O)C1=C(C)NC(C)=C(C(=O)OC)C1c1cccc(Cl)c1Cl (stereo not drawn) [felodipine, 4-(2',3'-dichloro)-2,6-dimethyl-1,4-dihydropyridine-3,5-dicarboxylic acid 3-ethyl ester 5-methyl ester] | high degree of calcium channel blocking activity | 
COC(=O)C1=C(C)NC(C)=C(C(=O)OC(C)C)C1c1cccc([N+](=O)[O-])c1 (stereo not drawn) [isopropyl methyl 1,4-dihydro-2,6-dimethyl 4-(3-nitrophenyl)-3,5-pyridine dicarboxylate] | high degree of calcium channel blocking activity | 
COC(=O)C1=C(C)NC(C)=C(C(=O)OCCN(C)Cc2ccccc2)C1c1cccc([N+](=O)[O-])c1 (stereo not drawn) [nicardipine, 2,6-dimethyl-4-(3'-nitrophenyl)-1,4-dihydropyridine-3,5-dicarboxylic acid-3-β-(N-benzyl-N-methylamino)-ethyl ester 5-methyl ester] | high degree of calcium channel blocking activity | first pass metabolism [1]: extensive first pass metabolism; anti-ischemic properties [2]: possesses anti-ischemic properties
COC(=O)C1=C(C)NC(C)=C(C(=O)OC)C1c1ccccc1[N+](=O)[O-] [nifedipine, 4-(2'-nitrophenyl)-2,6-dimethyl-1,4-dihydropyridine-3,5-dicarboxylic acid dimethyl ester] | high degree of calcium channel blocking activity | calcium channel blocking activity (calcium channel; listed as 4-(2'-nitrophenyl)-2,6-dimethyl-1,4-dihydropyridine-3,5-dicarboxylic acid dimeth): shows calcium channel blocking activity
CCCOCCOC(=O)C1=C(C)NC(C)=C(C(=O)OCCOCCC)C1c1cccc([N+](=O)[O-])c1 [niludipine, 4-(3'-nitrophenyl)-2,6-dimethyl-1,4-dihydropyridine-3,5-dicarboxylic acid di-n-propyloxethyl ester] | high degree of calcium channel blocking activity | 
COC(=O)C1=C(C)NC(C)=C(C(=O)OCC(C)C)C1c1ccccc1[N+](=O)[O-] (stereo not drawn) [nisoldipine, 4-(2'-nitrophenyl)-2,6-dimethyl-1,4-dihydropyridine-3,5-dicarboxylic acid 3-methyl ester 5-isobutyl ester] | high degree of calcium channel blocking activity | 
CCOC(=O)C1=C(C)NC(C)=C(C(=O)OC)C1c1cccc([N+](=O)[O-])c1 (stereo not drawn) [nitrendipine, 4-(3'-nitrophenyl)-2,6-dimethyl-1,4-dihydropyridine-3,5-dicarboxylic acid 3-ethyl ester 5-methyl ester] | high degree of calcium channel blocking activity | 
